Results reported in patent US20220143086A1, “METHOD OF HOMING AND RETENTION OF GAMMADELTA T CELLS, OPTIONALLY WITH NATURAL KILLER CELLS, FOR GENERATING CELL COMPOSITIONS FOR USE IN THERAPY” (Gamida Cell Ltd., priority 2019, published 2022).
“Also recorded” adds a separate entry of the source.

Columns and labels:
[1] = test system: alphabeta-depleted peripheral blood cells; assay: T-cell receptor characterization by FACS of CD3+ cells from cultured alphabeta-depleted blood cells; type: cell-based, human; details: 5 mM nicotinamide
Experimental: (§1) Healthy donor blood units samples were depleted of TCR alphabeta-expressing T-cells using midiMACS™ columns and TCRα/β Kit (Miltenyi Biotec, Gaithersberg, Md.). Alphabeta-T-cell depleted populations were cultured for 12-13 days in VueLife® (Saint-Gobain, Gaithersburg, Md.) bags with medium supplemented with 0 (control) or 5 mM nicotinamide (NAM) and 50 ng/ml IL-2.
To characterize T cell receptor (TCR) expressed on CD3+ cells in culture, CD3 positive cells were purified with CliniMACS™ CD3 reagent (Miltenyi, 273-01, Gaithersburg, Md.) followed by FACS analysis of the percentages of CD3+/γδ+ and CD3+/α/β+ cells. FACS staining and analysis was performed according to standard procedures employing cell surface-specific antibodies.

gammadelta T cells [2] = assay: CD62L expression in expanded gammadelta T-cells (FACS); type: cell-based, human
Experimental: as §1
Purified gamma-delta T-cells from NAM-treated and control (−NAM) cultures were stained for CD62L (L-selectin) and analyzed by FACS, using anti-CD62L antibodies.

gammadelta T cells [3] = assay: Transplantation and in-vivo homing and retention of expanded gammadelta T-cells in irradiated NSG mice; details: for in-vivo homing and tissue retention of gammadelta cells: cells expanded with 5 mM NAM, CFSE-labeled, i.v. into irradiated NSG mice, 4 days, all tissues analyzed
Experimental: as §1
CD3+/gammadelta+ cells were purified from culture, as described above, and then marked with CFSE (Invitrogen, Thermo-Fisher, Carlsbad, Calif.). NSG SCID mice were irradiated at 350cGy. The next day following irradiation, 5-6×10^6 CFSE-labeled CD3+/gammdelta-positive cells per mouse from NAM and control (−NAM) cultures were injected intravenously into the mice.
Mice were sacrificed 4 days after cell infusion, and organs excised. Fractions of CFSE stained cells were evaluated by FACS of organ cell suspensions.

[4] = cells cultured with 5 mM NAM, 4 days after infusion, irradiated NSG mice

## NC(=O)c1cccnc1 [NAM, nicotinamide]
[1]; 50 ng/ml IL-2, 12-13 days culture, CD3+ selected, FACS
  gammadelta T cells in CD3+ T-cell fraction: greater than 90%
[1]; 12-13 days culture
  effect on expansion of the gammadelta positive component of cultured T-cell populations: does not seem to affect
Gammadelta T cells [2]; 5 mM NAM versus identical cells cultured without NAM
  CD62L expression (in words): striking enhancement
Gammadelta T cells [2]; 5 mM nicotinamide, 12-13 days culture, versus culture without NAM
  increase in CD62L expression: ~3 fold
Gammadelta T cells [3]; [4]
  gammadelta T-cells retained in blood and lung tissue: nearly three-fold increase
  gammadelta T-cells retained in lymphoid tissue (spleen, bone marrow): powerful enhancement
Gammadelta T cells [3]
  in-vivo homing and tissue retention of gammadelta cells: enhanced incidence of homing and retention; also recorded: striking effect
Gammadelta T cells [3]; listed as nicotinamide
  in-vivo homing and tissue retention of gammadelta cells: greater homing and tissue retention
